Measurements from patent US6444691B1, “1,3-disubstituted ureas as ACAT inhibitors, and method of preparing thereof” (Solvakofarma, a.s., priority 1997, dated 2002).

Legend:
[1] = system: rat liver ACAT (acylCoa:cholesterol acyltransferase); assay: In vitro inhibition of ACAT activity, rat liver microsomal fraction; format: biochemical; details: rat liver microsomes, concentration 2 μM, versus enzyme activity in 1% dimethylsulfoxide
Protocol: (§1) The biological activity of the substances was evaluated based on the in vitro inhibition of acylCoa:cholesterol acyltransferase (ACAT) activity. The enzyme was obtained from the microsomal fraction of rat liver cells and rabbit intestinal mucosa of animals fed with cholesterol. The substrates for the enzyme reaction included exogenous oleoyl co-enzyme A and endogenous cholesterol. ^14C-oleoyl co-enzyme A conversion to ^14C-cholesteryl oleate was monitored. From the mixture of extracted lipids, cholesteryl oleate was separated using thin-layer chromatography, and was quantified radiometrically. ACAT specific activity was expressed as the amount of cholesteryl oleate formed per minute per mg microsomal protein.
(§2) Efficiency was calculated as compared to enzyme activity measured in the presence of 1% dimethylsulfoxide used as the solvent to prepare solutions of the substances tested.

[2] = system: rabbit intestinal mucosa ACAT (acylCoa:cholesterol acyltransferase); assay: In vitro inhibition of ACAT activity, rabbit intestinal mucosa microsomal fraction; format: biochemical; details: rabbit intestinal mucosa microsomes, concentration 2 μM, versus enzyme activity in 1% dimethylsulfoxide
Protocol: as §1, §2

Row | Compound | Efficiency (%) liver (ACAT inhibition) [1] | Efficiency (%) mucosa (ACAT inhibition) [2]
1 | Cc1cccc(C)c1NC(=O)Nc1ccc(Sc2ccc(N)cc2)cc1 [Example 58, 1-(2,6-Dimethylphenyl)-3-((4′-aminophenylthio)-phenyl)-urea] | 21% | 29%
2 | Nc1ccc(Sc2ccc(NC(=O)Nc3cccc(Cl)c3Cl)cc2)cc1 [Example 57, 1-(2,3-Dichlorophenyl)-3-((4′-aminophenylthio)-phenyl)-urea] | 15% | 26%
3 | O=C(Nc1ccc(F)cc1)Nc1ccc(Sc2ccc([N+](=O)[O-])cc2)cc1 [Example 26, 1-(4-Fluorophenyl)-3-((4′-nitrophenylthio)-phenyl)-urea] | 25% | 27%
4 | O=C(Nc1ccc(Sc2ccc([N+](=O)[O-])cc2)cc1)Nc1ccc(F)cc1F [Example 27, 1-(2,4-Difluorophenyl)-3-((4′-nitrophenylthio)-phenyl)-urea] | 16% | 23%
5 | CC(C)c1cccc(C(C)C)c1NC(=O)Nc1ccc(Oc2ccc([N+](=O)[O-])cc2)cc1 [Example 14, 1-(2,6-Di-(methylethyl)-phenyl)-3-((4′-nitrophenoxy)-phenyl)-urea] | 50% | 67%
6 | 1-(2,6-Dimethylphenyl)-3-((4′-nitrophenylthio)-phenyl)-urea [Example 40] | 23% | 34%
7 | O=C(Nc1ccc(Sc2ccc([N+](=O)[O-])cc2)cc1)Nc1ccccc1C(F)(F)F [Example 43, 1-(2-Trifluoromethylphenyl)-3-((4′-nitrophenylthio)-phenyl)-urea] | 25% | 38%
8 | O=C(Nc1ccc(Oc2ccc([N+](=O)[O-])cc2)cc1)Nc1ccccn1 [Example 18] | 26% | 34%
9 | 1-(2,4-Dimethylphenyl)-3-((4′-nitrophenylthio)-phenyl)-urea [Example 39] | 19% | 31%
10 | O=C(Nc1ccc(Oc2ccc([N+](=O)[O-])cc2)cc1)Nc1ccccc1Cl [Example 5, 1-(2-Chlorophenyl)-3-((4′-nitrophenoxy)-phenyl)-urea] | 0% | 0%
11 | O=C(Nc1ccc(Oc2ccc([N+](=O)[O-])cc2)cc1)Nc1cccc2ccccc12 [Example 21] | 14% | 22%
12 | O=C(Nc1ccc(Oc2ccc([N+](=O)[O-])cc2)cc1)Nc1cccnc1 [Example 19] | 0% | 0%
13 | O=C(Nc1ccc(Sc2ccc([N+](=O)[O-])cc2)cc1)Nc1ccc(Cl)cc1Cl [Example 33, 1-(2,4-Dichlorophenyl)-3-((4′-nitrophenylthio)-phenyl)-urea] | 12% | 16%
14 | O=C(Nc1ccc(Sc2ccc([N+](=O)[O-])cc2)cc1)Nc1cccc2ccccc12 [Example 49, 1-(1-Naphthyl)-3-((4′-nitrophenylthio)-phenyl)-urea] | 24% | 36%
15 | O=C(Nc1ccc(Sc2ccc([N+](=O)[O-])cc2)cc1)Nc1ccccc1F [Example 25, 1-(2-Fluorophenyl)-3-((4′-nitrophenylthio)-phenyl)-urea] | 0% | 23%
16 | Cc1cccc(C)c1NC(=O)Nc1ccc(Oc2ccc(N)cc2)cc1 [Example 54, 1-(2,6-Dimethylphenyl)-3-((4′-aminophenoxy)-phenyl)-urea] | 38% | 62%
17 | O=C(Nc1ccc(Sc2ccc([N+](=O)[O-])cc2)cc1)Nc1ccccc1Cl [Example 30, 1-(2-Chlorophenyl)-3-((4′-nitrophenylthio)-phenyl)-urea] | 20% | 26%
18 | O=C(Nc1ccc(Sc2ccc([N+](=O)[O-])cc2)cc1)Nc1ccc2ccccc2c1 [Example 50, 1-(2-Naphthyl)-3-((4′-nitrophenylthio)-phenyl)-urea] | 16% | 31%
19 | O=C(Nc1ccc(Cl)cc1)Nc1ccc(Sc2ccc([N+](=O)[O-])cc2)cc1 [Example 31, 1-(4-Chlorophenyl)-3-((4′-nitrophenylthio)-phenyl)-urea] | 12% | 21%

Row | Compound | Efficiency (%) liver (ACAT inhibition) [1] | Efficiency (%) mucosa (ACAT inhibition) [2]
20 | Cc1cc(C)cc(NC(=O)Nc2ccc(Oc3ccc([N+](=O)[O-])cc3)cc2)c1 [Example 13, 1-(3,5-Dimethylphenyl)-3-((4′-nitrophenoxy)-phenyl)-urea] | 0% | 0%
21 | O=C(Nc1ccc(Oc2ccc([N+](=O)[O-])cc2)cc1)Nc1ccc(C(F)(F)F)cc1 [Example 17, 1-(4-Trifluoromethylphenyl)-3-((4′-nitrophenoxy)-phenyl)-urea] | 25% | 18%
22 | O=C(Nc1ccc(Sc2ccc([N+](=O)[O-])cc2)cc1)Nc1ccc(C(F)(F)F)cc1 [Example 45, 1-(4-Trifluoromethylphenyl)-3-((4′-nitrophenylthio)-phenyl)-urea] | 23% | 25%
23 | O=C(Nc1ccc(Sc2ccc([N+](=O)[O-])cc2)cc1)Nc1ccc(Cl)c(Cl)c1 [Example 35, 1-(3,4-Dichlorophenyl)-3-((4′-nitrophenylthio)-phenyl)-urea] | 0% | 20%
24 | O=C(Nc1ccc(Sc2ccc([N+](=O)[O-])cc2)cc1)NC12CC3CC(CC(C3)C1)C2 [Example 51, 1-(1-Adamantyl)-3-((4′-nitrophenylthio)-phenyl)-urea] | 45% | 56%
25 | Nc1ccc(Oc2ccc(NC(=O)Nc3cccc(Cl)c3Cl)cc2)cc1 [Example 53, 1-(2,3-Dichlorophenyl)-3-((4′-aminophenoxy)-phenyl)-urea] | 55% | 46%
26 | O=C(Nc1ccc(Oc2ccc([N+](=O)[O-])cc2)cc1)Nc1ccccc1C(F)(F)F [Example 15, 1-(2-Trifluoromethylphenyl)-3-((4′-nitrophenoxy)-phenyl)-urea] | 46% | 42%
27 | CC(C)c1cccc(C(C)C)c1NC(=O)Nc1ccc(Sc2ccc(N)cc2)cc1 [Example 59] | 56% | 67%
28 | O=C(Nc1ccc(Oc2ccc([N+](=O)[O-])cc2)cc1)Nc1cccc(C(F)(F)F)c1 [Example 16, 1-(3-Trifluoromethylphenyl)-3-((4′-nitrophenoxy)-phenyl)-urea] | 38% | 45%
29 | O=C(Nc1ccc(Sc2ccc([N+](=O)[O-])cc2)cc1)Nc1ccccn1 [Example 46, 1-(2-Pyridyl)-3-((4′-nitrophenylthio)-phenyl)-urea] | 48% | 46%
30 | O=C(Nc1ccc(Sc2ccc([N+](=O)[O-])cc2)cc1)Nc1cccnc1 [Example 47, 1-(3-Pyridyl)-3-((4′-nitrophenylthio)-phenyl)-urea] | 45% | 36%
31 | O=C(Nc1ccc(Oc2ccc([N+](=O)[O-])cc2)cc1)Nc1ccccc1F [Example 1, 1-(2-Fluorophenyl)-3-((4′-nitrophenoxy)-phenyl)-urea] | 15% | 32%
32 | Nc1ccc(Oc2ccc(NC(=O)Nc3ccc(F)cc3F)cc2)cc1 [Example 52, 1-(2,4-Difluorophenyl)-3-((4′-aminophenoxy)-phenyl)-urea] | 53% | 64%
33 | Cc1ccc(NC(=O)Nc2ccc(Oc3ccc([N+](=O)[O-])cc3)cc2)c(C)c1 [Example 11, 1-(2,4-Dimethylphenyl)-3-((4′-nitrophenoxy)-phenyl)-urea] | 0% | 0%
34 | CC(C)c1cccc(C(C)C)c1NC(=O)Nc1ccc(Oc2ccc(N)cc2)cc1 [Example 55, 1-(2,6-Di(methylethyl)-phenyl)-3-((4′-aminophenoxy)-phenyl)-urea] | 68% | 64%
35 | 1-(3-Trifluoromethylphenyl)-3-((4′-nitrophenylthio)-phenyl)-urea [Example 44] | 34% | 45%
36 | CC(C)c1cccc(C(C)C)c1NC(=O)Nc1ccc(Sc2ccc([N+](=O)[O-])cc2)cc1 [Example 42] | 88% | 71%
37 | Cc1ccc(NC(=O)Nc2ccc(Oc3ccc([N+](=O)[O-])cc3)cc2)cc1 [Example 10, 1-(4-Methylphenyl)-3-((4′-nitrophenoxy)-phenyl)-urea] | 0% | 0%
38 | O=C(Nc1ccc(Oc2ccc([N+](=O)[O-])cc2)cc1)Nc1cc(F)ccc1F [Example 3, 1-(2,5-Difluorophenyl)-3-((4′-nitrophenoxy)-phenyl)-urea] | 49% | 58%
